Results on 1 sequence are retold here after US11179450B2, “Long chain antigen containing interepitope sequence that promotes antigen presentation to T cells” (MIE UNIVERSITY, priority 2013, dated 2021).

This assay deals with mouse fibrosarcoma cell line CMS5a. The assay is described as follows: Mouse tumor growth test. Type of assay: in vivo, BALB/c mice. Particulars: FIG. 2; single dose of vaccine with CpG oligo DNA before subcutaneous CMS5a implantation (prophylactic condition); Student's t test. An excerpt: Long chain peptide antigens MEN, all containing three types of mouse CD8+ T cell epitope sequences (MA p265 (Sequence No. 27), NY p81 (Sequence No. 29), and mERK2 9m (Sequence No. 28)), were synthesized. The interepitope sequences between the respective epitopes were respectively six consecutive tyrosines (Y6) (Sequence No. 1), six consecutive glycines (G6) (Sequence No. 2), or six consecutive prolines (P6) (Sequence No. 3). Each long chain peptide antigen was complexed with CHP and administered in a single dose as a vaccine to a mouse. As a control, a short chain peptide vaccine, constituted of just the mERK2 9m peptide, was mixed with Freund's incomplete adjuvant and administered. In the process of administration, CpG oligo DNA was coadministered as an adjuvant. On the day after administration, a mouse fibrosarcoma cell line CMS5a, expressing mERK2 as a tumor antigen and presenting the CD8+ T cell epitope mERK2 9m derived from the same antigen, was implanted subcutaneously and its growth was recorded over time.
A subcloned CMS5a cell line, obtained from a CMS5 cell line isolated from fibrosarcoma induced by administering 3-methylcholanthrene to a BALB/c mouse, expresses mutant ERK2 (mERK2) as a tumor antigen and presents a CD8^+ T cell epitope derived from the mERK2. The CMS5a cell line cultured in a T75 flask (Nunc) was detached using PBS containing 0.5% trypsin and collected in RPMI1640 medium containing 10% FBS. After centrifuging (400×g, 5 minutes, 4° C.), the supernatant was removed, and the cells were rinsed twice with RPMI1640 medium, thereafter suspended in RPMI1640 medium at a concentration of 1×10^6 cells/100 μL, and implanted subcutaneously in BALB/c mice at a dose of 100 μL/individual. The CHP/long chain peptide complexes and the adjuvant were administered 7 days before tumor implantation (prophylactic condition). After tumor implantation, the length and breadth of the tumor were measured and the product thereof was recorded as tumor size. The data in the tumor growth test were compared by Student's t test using Microsoft® Excel® (Microsoft Corporation).

On to “SNPARYEFLYYYYYYQYIHSANVLYYYYYYRGPESRLL (Long chain peptide antigen, containing three types of mouse CD8+ T cell epitope sequences (MA p265, NY p81, and mERK2 9m)) [MEN(Y6)]”, for which the “growth of the tumor” value is listed as “suppressed significantly (p<0.05)”.
